From patent publication US20070249607A1, “NK-1 AND SEROTONIN TRANSPORTER INHIBITORS” (Bristol-Myers Squibb Company, priority 2006, published 2007)
Read-outs that look alike come from different tables or passages of the source.

Key:
[1] = biological target: T1, neurokinin-1 (NK-1) receptor (Homo sapiens, UniProt P25103); experiment: NK-1 Binding assay ([125I] Substance P competition, U373 cell membranes); details: Table 2; U373 membranes, [125I] Substance P displacement; read-out: NK-1 IC50
T1 construct: a human glioblastoma-astrocytoma cell line that endogenously expresses the neurokinin-1 (NK-1) receptor; endogenous in cells; host or cells: U373 human glioblastoma-astrocytoma cells (membranes)
T1 sequence (P25103 whole entry): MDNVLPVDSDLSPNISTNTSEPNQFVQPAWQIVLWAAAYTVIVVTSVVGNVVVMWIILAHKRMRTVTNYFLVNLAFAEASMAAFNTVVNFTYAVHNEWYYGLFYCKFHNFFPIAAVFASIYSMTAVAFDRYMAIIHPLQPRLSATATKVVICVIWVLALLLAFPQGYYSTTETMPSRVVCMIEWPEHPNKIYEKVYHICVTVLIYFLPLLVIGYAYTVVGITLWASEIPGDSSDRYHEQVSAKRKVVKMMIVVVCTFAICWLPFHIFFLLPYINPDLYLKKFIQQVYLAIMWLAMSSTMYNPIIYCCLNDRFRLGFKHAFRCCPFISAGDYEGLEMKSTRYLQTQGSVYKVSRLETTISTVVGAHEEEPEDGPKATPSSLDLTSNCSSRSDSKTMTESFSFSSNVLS
Method in brief: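 Membranes were prepared from U373 human glioblastoma-astrocytoma cells, which express NK-1 endogenously, in 50 mM Tris-HCl pH 7.4 with 3 mM MnCl2, BSA and protease inhibitors. IC50 taken as the midpoint of the specific-binding displacement curve.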

[2] = biological target: T2, human serotonin transporters (Homo sapiens, UniProt P31645); experiment: Serotonin transporter binding assay ([3H]-citalopram competition, HEK-hSERT cell membranes)
T2 construct: expressed in transfected cells
T2 sequence (P31645 whole entry): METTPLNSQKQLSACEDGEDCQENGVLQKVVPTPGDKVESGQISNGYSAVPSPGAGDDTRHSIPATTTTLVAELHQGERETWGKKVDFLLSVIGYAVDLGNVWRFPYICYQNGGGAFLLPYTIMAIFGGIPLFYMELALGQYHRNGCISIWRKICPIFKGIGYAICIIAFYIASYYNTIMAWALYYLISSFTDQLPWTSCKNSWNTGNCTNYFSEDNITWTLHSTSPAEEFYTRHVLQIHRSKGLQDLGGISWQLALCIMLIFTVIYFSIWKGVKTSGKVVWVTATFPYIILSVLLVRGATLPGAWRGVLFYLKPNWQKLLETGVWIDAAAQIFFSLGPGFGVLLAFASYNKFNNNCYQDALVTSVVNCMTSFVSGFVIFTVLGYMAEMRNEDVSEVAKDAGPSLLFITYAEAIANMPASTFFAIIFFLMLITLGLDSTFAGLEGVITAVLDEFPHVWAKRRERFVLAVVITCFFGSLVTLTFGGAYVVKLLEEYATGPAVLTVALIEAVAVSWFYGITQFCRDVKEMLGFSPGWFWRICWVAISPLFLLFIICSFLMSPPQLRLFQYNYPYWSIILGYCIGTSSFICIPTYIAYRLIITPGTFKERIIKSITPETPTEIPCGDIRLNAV
Method in brief: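 Membranes from HEK-293 cells stably expressing hSERT incubated 1 hr at 25 °C with 1 nM [3H]-citalopram and test compound in 50 mM Tris pH 7.4, 120 mM NaCl, 5 mM KCl; filtration read-out. Nonspecific binding: 10 μM fluoxetine. IC50 from displacement curve; Ki via Cheng–Prusoff.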

[3] = Table 2, HEK-hSERT membranes, [3H]-citalopram displacement, read-out: SERT IC50

| Compound | IC50 [1] [nM] | IC50 [2, 3] [nM] | IC50 [2] [nM] |
| --- | --- | --- | --- |
| FC(F)(F)Oc1cccc(-c2cc(COCC3(c4ccccc4)CCNCC3)cc(C(F)(F)F)c2)c1 | > 300 | 0.01 to 100 | – |
| CC(C)Cc1ccc(-c2cc(COCC3(c4ccccc4)CCNCC3)cc(C(F)(F)F)c2)cc1 | > 300 | 100 to 300 | – |
| Fc1cccc(-c2cc(COCC3(c4ccccc4)CCNCC3)cc(C(F)(F)F)c2)c1F | 0.01 to 100 | 0.01 to 100 | – |
| Fc1ccc(F)c(-c2cc(COCC3(c4ccccc4)CCNCC3)cc(C(F)(F)F)c2)c1 | 0.01 to 100 | 0.01 to 100 | – |
| FC(F)(F)c1cc(COCC2(c3ccccc3)CCNCC2)cc(-c2cc(Cl)ccc2Cl)c1 | > 300 | 0.01 to 100 | – |
| Cc1ccc(C)c(-c2cc(COCC3(c4ccccc4)CCNCC3)cc(C(F)(F)F)c2)c1 | > 300 | 0.01 to 100 | – |
| COc1ccc(F)cc1-c1cc(COCC2(c3ccccc3)CCNCC2)cc(C(F)(F)F)c1 | 100 to 300 | 0.01 to 100 | – |
| N#Cc1ccc(-c2cc(COCC3(c4ccccc4)CCNCC3)cc(C(=O)N3CCCCC3)c2)cc1 | > 300 | 0.01 to 100 | – |
| N#Cc1ccc(-c2cc(COCC3(c4ccccc4)CCNCC3)cc(C(=O)N3CCOCC3)c2)cc1 | > 300 | 0.01 to 100 | – |
| Oc1cc(COCC2(c3ccccc3)CCNCC2)cc(-c2ccc(F)cc2)c1 | > 300 | 0.01 to 100 | – |
| N#Cc1cc(COCC2(c3ccccc3)CCNCC2)cc(-c2ccc(F)cc2)c1 | 0.01 to 100 | 0.01 to 100 | – |
| NC(=O)c1cc(COCC2(c3ccccc3)CCNCC2)cc(-c2ccc(F)cc2)c1 | > 300 | 0.01 to 100 | – |
| COc1cc(COCC2(c3ccccc3)CCNCC2)cc(-c2ccc(F)cc2)c1 | 0.01 to 100 | 0.01 to 100 | – |
| N#Cc1ccc(-c2cc(COCC3(c4ccccc4)CCN(C4CC4)CC3)cc(C(F)(F)F)c2)cc1 | 0.01 to 100 | > 300 | – |
| COc1c(C)cc(-c2ccc(C#N)cc2)cc1COCC1(c2ccccc2)CCNCC1 | 0.01 to 100 | 0.01 to 100 | – |
| COc1ccc(-c2cc(COCC3(c4ccccc4)CCNCC3)cc(C(F)(F)F)c2)nn1 | 0.01 to 100 | 0.01 to 100 | – |
| Cc1cc(-c2cc(COCC3(c4ccccc4)CCNCC3)cc(C(F)(F)F)c2)ccc1C#N | 0.01 to 100 | 0.01 to 100 | – |
| N#Cc1ccc(-c2cc(COCC3(c4ccccc4)CCNCC3)cc(C(F)(F)F)c2)cc1Cl | 0.01 to 100 | 0.01 to 100 | – |
| N#Cc1c(F)c(F)c(-c2cc(COCC3(c4ccccc4)CCNCC3)cc(C(F)(F)F)c2)c(F)c1F | 0.01 to 100 | 0.01 to 100 | – |
| N#Cc1c(F)cc(-c2cc(COCC3(c4ccccc4)CCNCC3)cc(C(F)(F)F)c2)cc1F | 0.01 to 100 | 0.01 to 100 | – |

| Compound | IC50 [1] [nM] | IC50 [2, 3] [nM] | IC50 [2] [nM] |
| --- | --- | --- | --- |
| FC(F)(F)c1cc(COCC2(c3ccccc3)CCNCC2)cc(-c2cnc(Cl)nc2)c1 | 0.01 to 100 | 0.01 to 100 | – |
| CN1CCC(COCc2cc(-c3cc(F)c(C#N)c(F)c3)cc(C(F)(F)F)c2)(c2ccccc2)CC1 | 0.01 to 100 | – | 0.01 to 100 |
| CN1CCC(COCc2cc(-c3c(F)c(F)c(C#N)c(F)c3F)cc(C(F)(F)F)c2)(c2ccccc2)CC1 | 0.01 to 100 | – | 0.01 to 100 |
| CN1CCC(COCc2cc(-c3ccc(C#N)c(Cl)c3)cc(C(F)(F)F)c2)(c2ccccc2)CC1 | 0.01 to 100 | – | 0.01 to 100 |
| Cc1cc(-c2cc(COCC3(c4ccccc4)CCN(C)CC3)cc(C(F)(F)F)c2)ccc1C#N | 0.01 to 100 | – | 0.01 to 100 |
| C[C@@H](OCC1(c2ccccc2)CCN(C)CC1)c1cc(-c2ccc(C#N)cc2)cc(C(F)(F)F)c1 | 0.01 to 100 | – | 0.01 to 100 |
| CN1CCC(COCc2cc(-c3ccc(C#N)cc3)cc(C(F)(F)F)c2)(c2ccccc2F)CC1 | 0.01 to 100 | – | 0.01 to 100 |
| COc1cc(F)c(-c2cc(COCC3(c4ccccc4)CCNCC3)cc(C(F)(F)F)c2)cc1F | 0.01 to 100 | 0.01 to 100 | – |
| COc1cc(-c2cc(COCC3(c4ccccc4)CCNCC3)cc(C(F)(F)F)c2)ccc1C#N | 0.01 to 100 | 0.01 to 100 | – |
| N#Cc1cc(F)c(-c2cc(COCC3(c4ccccc4)CCNCC3)cc(C(F)(F)F)c2)cc1F | 0.01 to 100 | 0.01 to 100 | – |
| COc1c(F)cc(-c2cc(COCC3(c4ccccc4)CCNCC3)cc(C(F)(F)F)c2)cc1F | 0.01 to 100 | 0.01 to 100 | – |
| COc1ccc(-c2cc(COCC3(c4ccccc4)CCNCC3)cc(C(F)(F)F)c2)c(F)c1F | 0.01 to 100 | 0.01 to 100 | – |
| COc1c(F)cc(-c2cc(COCC3(c4ccccc4)CCN(C)CC3)cc(C(F)(F)F)c2)cc1F | 0.01 to 100 | – | 0.01 to 100 |
| COc1cc(-c2cc(COCC3(c4ccccc4)CCN(C)CC3)cc(C(F)(F)F)c2)ccc1C#N | 0.01 to 100 | – | 0.01 to 100 |
| COc1cc(F)c(-c2cc(COCC3(c4ccccc4)CCN(C)CC3)cc(C(F)(F)F)c2)cc1F | 0.01 to 100 | – | 0.01 to 100 |
| CN1CCC(COCc2cc(-c3cc(F)c(C#N)cc3F)cc(C(F)(F)F)c2)(c2ccccc2)CC1 | 0.01 to 100 | – | 0.01 to 100 |
| CN1CCC(COCc2cc(-c3ccc(C#N)cc3)cc(C(F)(F)F)c2)(c2ccc(F)cc2F)CC1 | 0.01 to 100 | – | 0.01 to 100 |
| COc1ccc(-c2cc(COCC3(c4ccccc4)CCN(C)CC3)cc(C(F)(F)F)c2)c(F)c1F | 0.01 to 100 | – | 0.01 to 100 |
| COc1ccc(-c2cc(COCC3(c4ccccc4)CCN(C)CC3)cc(C(F)(F)F)c2)cc1C | 0.01 to 100 | – | 0.01 to 100 |
| N#Cc1ccc(-c2cc(COCC3(c4ccc(F)cc4C#N)CCNCC3)cc(C(F)(F)F)c2)cc1 | 0.01 to 100 | 0.01 to 100 | – |

| Compound | IC50 [1] [nM] | IC50 [2, 3] [nM] | IC50 [2] [nM] |
| --- | --- | --- | --- |
| CN1CCC(COCc2cc(-c3ccc(C#N)cc3)cc(C(F)(F)F)c2)(c2cccc(C#N)c2)CC1 | 0.01 to 100 | – | 0.01 to 100 |
| N#Cc1ccc(-c2cc(COCC3(c4ccc(F)cc4-c4ccccc4)CCNCC3)cc(C(F)(F)F)c2)cc1 | 0.01 to 100 | 100 to 300 | – |
| N#Cc1ccc(-c2cc(COCC3(c4ccc(F)cc4Br)CCNCC3)cc(C(F)(F)F)c2)cc1 | 0.01 to 100 | 0.01 to 100 | – |
| N#Cc1ccc(-c2cc(COCC3(c4cccc(Cl)c4)CCNCC3)cc(C(F)(F)F)c2)cc1 | 0.01 to 100 | 0.01 to 100 | – |
| CN1CCC(COCc2cc(-c3ccc(C#N)cc3)cc(C(F)(F)F)c2)(c2cccnc2)CC1 | 0.01 to 100 | – | 0.01 to 100 |
| N#Cc1ccc(-c2cc(COCC3(c4ccc(F)c(F)c4)CCNCC3)cc(C(F)(F)F)c2)cc1 | 0.01 to 100 | 0.01 to 100 | – |
| CN1CCC(COCc2cc(-c3ccc(C#N)cc3)cc(C(F)(F)F)c2)(c2ccc(F)c(F)c2)CC1 | 0.01 to 100 | – | 0.01 to 100 |
| CN1CCC(COCc2cc(-c3ccc(C#N)cc3)cc(C(F)(F)F)c2)(c2ccc(Br)cc2)CC1 | 0.01 to 100 | – | 0.01 to 100 |
| CN1CCC(COCc2cc(-c3ccc(C#N)cc3)cc(C(F)(F)F)c2)(c2cccc(Br)c2)CC1 | 0.01 to 100 | – | 0.01 to 100 |
| N#Cc1ccc(-c2cc(COCC3(c4ccc(Br)cc4)CCNCC3)cc(C(F)(F)F)c2)cc1 | 0.01 to 100 | 0.01 to 100 | – |
| N#Cc1ccc(-c2cc(COCC3(c4cccc(Br)c4)CCNCC3)cc(C(F)(F)F)c2)cc1 | 0.01 to 100 | 0.01 to 100 | – |
| CN1CCC(COCc2cc(-c3ccc(C#N)cc3)cc(C(F)(F)F)c2)(c2ccc(C#N)cc2)CC1 | 0.01 to 100 | – | 0.01 to 100 |
| CN1CCC(COCc2cc(-c3ccc(C#N)cc3)cc(C(F)(F)F)c2)(c2cccc(Cl)c2)CC1 | 0.01 to 100 | – | 0.01 to 100 |
| CN1CCC(COCc2cc(-c3ccc(C#N)cc3)cc(C(F)(F)F)c2)(c2cccc(C(F)(F)F)c2)CC1 | 0.01 to 100 | – | 0.01 to 100 |
| Cc1cc(-c2cc(COCC3(c4cccnc4)CCN(C)CC3)cc(C(F)(F)F)c2)ccc1C#N | 0.01 to 100 | – | 0.01 to 100 |
| CN1CCC(COCc2cc(-c3ccc(C#N)cc3)cc(C(F)(F)F)c2)(c2ccncc2)CC1 | 0.01 to 100 | – | 0.01 to 100 |
| CN1CCC(COCc2cc(-c3ccc(C#N)cc3)cc(C(F)(F)F)c2)(c2ccc(-c3ccco3)cc2)CC1 | 0.01 to 100 | – | 100 to 300 |
| COc1cccc(C2(COCc3cc(-c4ccc(C#N)cc4)cc(C(F)(F)F)c3)CCN(C)CC2)c1 | 0.01 to 100 | – | 0.01 to 100 |
